# Measured values: US7132554B2, “Therapeutic synergy of anti-cancer compounds” (Bristol-Myers Squibb Company, priority 2004, dated 2006)
# Key:
# [1] = system: Human L2987 lung carcinoma xenografts; test: Antitumor testing versus s.c. L2987 lung carcinoma xenografts in nude mice; format: in vivo; details: for T-C: tumor target 1.0 g
# Experimental: (§1) Compounds. The oral taxane (Ia) was synthesized by Bristol-Myers Squibb (BMS) chemists. The compound was dissolved initially in equal portions of Cremophor EL and ethanol, followed by aqueous dilution to yield final ethanol and Cremophor EL concentrations of 10%.
# (§2) Animals. Athymic (“nude”) mice, 5–6 weeks of age, purchased from Harlan Sprague Dawley (Indianapolis, Ind.), were quarantined for ˜2 weeks before their use for tumor propagation and drug efficacy testing. They were fed food and water ad libitum. All studies involving these animals were conducted in accordance with NIH (Bethesda, Md.) and Bristol Myers-Squibb animal care and use guidelines.
# (§3) Tumors. Human L2987 lung and GEO colon carcinomas were maintained in nude mice by serial s.c. passage. All efficacy testing involved tumors implanted s.c. in nude mice.
# (§4) Antitumor Testing. A detailed description of the methods used to assess antitumor effects has been provided previously in Rose, W. C., Fairchild, C., and Lee, F. Y. F. Preclinical antitumor activity of two novel taxanes. Cancer Chemother. Pharmacol. 47: 97–105, 2001. […] Delays in tumor growth are also converted to log cell kill (LCK) values by methods described in the same article. Statistical evaluations of data were performed using Gehan's generalized Wilcoxon test for comparisons of time to reach tumor target size. Statistical significance was declared at P<0.05. Group sizes typically consisted of eight mice. Activity was defined as ≧1 LCK.
# (§5) Definitions of MTD and OD have been published previously in the above-noted article. Therapeutic results were reported at the OD, i.e., that yielding the best effect without exceeding the MTD. Therapeutic synergy represents a therapeutic effect achieved with a tolerated regimen of a combination treatment that exceeds the optimal effect achieved at any tolerated dose of monotherapy associated with the same drugs used in the combination. Cured mice are defined as those whose tumors are ≦35 mg when assessed 10 tumor volume doubling times (based on control tumor growth between 500 mg and 1 g) post-termination of treatment. A regimen was described as “toxic” if more than one mouse died during or within 10 days following the final drug treatment, or anytime after the initiation of drug therapy whose tumor size at the time of death was below 1 g.
# [2] = system: Human GEO colon carcinoma xenografts; test: Antitumor testing versus s.c. GEO colon carcinoma xenografts in nude mice; format: in vivo; set-up: key: Treatment resulting in more than one death is described as “TOX” (i.e., toxic); details: q3dx6 from Day 11
# Experimental: as §1, §2, §3, §4, §5
# [3] = Tolerability (body weight change, deaths, MTD) in nude mice bearing L2987 tumors; format: in vivo
# Experimental: as §1, §2, §5
# [4] = Tolerability (body weight change, deaths, MTD) in nude mice bearing GEO tumors; format: in vivo
# Experimental: as §1, §2, §5
# [5] = Phase I clinical trial, weekly schedule of administration; format: in vivo, human
# Text: The preclinical activity of Compound Ia was observed using several different schedules, with an intermittent administration regimen being optimal in one carefully examined tumor model. […] Heavily pretreated patients, typically having received two or three prior chemo/radiotherapies, have responded to weekly Compound Ia. All but one of the several responding patients had NSCLC, and all but one of these had previously received either a parenteral taxane or a small molecule anti-EGFR compound, gefitinib, or both. The purpose of our current investigations was to evaluate this oral taxane versus preclinical human tumor models using a multiple administration treatment regimen, in combination with an inhibitor of EGFR.
# [6] = system: Human GEO colon carcinoma xenografts; details: known from earlier work; cited from earlier work
# [7] = confirmatory study, q3dx6 from Day 20, Compound Ia 40 mg/kg/adm p.o.
# [8] = confirmatory study, q3dx6 from Day 20, Compound Ia 60 mg/kg/adm p.o.
# [9] = pilot study, q3dx4 from Day 22, Compound Ia 40 mg/kg/adm p.o.
# [10] = pilot study, q3dx4 from Day 22, Compound Ia 60 mg/kg/adm p.o.
structure (smiles),measurement,setting,value
COC(=O)OC12COC1CC(O)C1(C)C(=O)C(OC(C)=O)C3=C(C)C(OC(=O)C(O)C(NC(=O)OC(C)(C)C)C(C)(C)C)CC(O)(C(OC(=O)c4ccccc4)C21)C3(C)C (centres unmarked) [Compound Ia],LCK (log cell kill),[1]; [7],0.5
same,T-C,[1]; [7],14.5 days
same,LCK (log cell kill),[1]; [8],1.0
same,T-C,[1]; [8],28.0 days
same,LCK (log cell kill),[1]; [9],0.2
same,T-C,[1]; [9],5.5 days
same,LCK (log cell kill),[1]; [10],0.6
same,T-C,[1]; [10],14.0 days
same,LCK (log cell kill),[2]; Compound Ia 40 mg/kg/adm p.o.,0.3
same,T-C,"[2]; Compound Ia 40 mg/kg/adm p.o., tumor target 1.0 g",4.0 days
same,LCK (log cell kill),[2]; Compound Ia 60 mg/kg/adm p.o.,0.7
same,T-C,"[2]; Compound Ia 60 mg/kg/adm p.o., tumor target 1.0 g",10.0 days
same,LCK (log cell kill),[2]; Compound Ia 90 mg/kg/adm p.o.,TOX
same,T-C,[2]; Compound Ia 90 mg/kg/adm p.o.,TOX
same,Average body weight change,[3]; [7],1.5 g
same,Average body weight change,[3]; [8],-0.9 g
same,"MTD, cumulative exposure","[3]; confirmatory study, 60 mg/kg/adm p.o. q3dx6, tolerated with minimal body weight loss",360 mg/kg
same,"historical MTD, cumulative exposure","[3]; p.o., established using a schedule similar to q3dx4",approximately 300 mg/kg
same,Average body weight change,[3]; [9],0.7 g
same,Average body weight change,[3]; [10],1.0 g
same,MTD,"[4]; p.o., q3dx6",60 mg/kg/adm
same,Average body weight change,"[4]; q3dx6 from Day 11, Compound Ia 40 mg/kg/adm p.o.",-2.6 g
same,Average body weight change,"[4]; q3dx6 from Day 11, Compound Ia 60 mg/kg/adm p.o.",-1.8 g
same,dead/total,"[4]; q3dx6 from Day 11, Compound Ia 90 mg/kg/adm p.o.",(3/8)
same,Clinical toxicity,[5],manageable toxicity
COc1cc2ncnc(Nc3ccc(F)c(Cl)c3)c2cc1OCCCN1CCOCC1 [gefitinib],Responsiveness of the GEO tumor model,[6],responsive
